≈ marks a conversion by molar mass, not a printed value. Read-outs that look alike come from different tables or passages of the source. Positions of bridges follow the written chain, without caps; N, C: chain ends. Residues, ends and D or L forms follow the SMILES beside them.
Columns and labels:
[1] = system: S. aureus ATCC 29213; assay type: cell-based, Staphylococcus aureus; conditions: ATCC 29213, 24 h
Procedure: (§1) The antimicrobial activity of the peptides was determined using two-fold serial dilutions in sterile 96-well flat-bottom polystyrene microplates (Eppendorf, Hamburg, Germany) (Cat. No. 0030730011), as previously described. The following strains of bacteria were used: E. coli ATCC 25922, E. coli ML35p (ATCC collection), E. coli BW 25113 (Keio collection), Pseudomonas aeruginosa PAO1 (ATCC collection), P. aeruginosa ATCC 27853, Klebsiella pneumoniae ATCC 700603, Staphylococcus aureus 209P (ATCC collection), S. aureus ATCC 29213, and Micrococcus luteus B-1314 (VKM collection). Acinetobacter baumannii (strain XDR CI 2675) was provided by the I.M. Sechenov First Moscow State Medical University hospital. After a 24 h incubation period, the metabolic activity of the bacteria was assessed by adding 20 µL of a redox indicator, resazurin (Sigma-Aldrich, St. Louis, MO, USA), at a concentration of 0.1 mg/mL, to the wells. The plate was then incubated for a further two hours. The minimum inhibitory concentration (MIC) was determined as the lowest concentration of the peptide at which no color change in the resazurin indicator was observed. The results were presented as median values, which were determined based on at least three independent experiments carried out in triplicate.

[2] = system: S. aureus 209P; assay type: cell-based, Staphylococcus aureus; conditions: 24 h
Procedure: as §1

[3] = system: human keratinocyte cell line (HaCaT); assay: Cytotoxicity MTT assay; assay type: cell-based; conditions: 18 h, 128
Procedure: In order to evaluate the cytotoxicity of the peptides against a human keratinocyte cell line (HaCaT, Cat. No. 300493) (Cell Lines Service, Köln, Germany), the colorimetric 3-(4,5-dimethylthiazol-2-yl)-2,5-diphenyltetrazolium bromide (MTT) dye reduction assay was performed, as described in a previous publication. Wells containing no peptide were used as a 100% survival control. Each peptide was tested in two separate experiments to ensure the reliability of the results.

[4] = system: K. pneumoniae ATCC 700603; assay type: cell-based, Klebsiella pneumoniae; conditions: ATCC 700603, 24 h
Procedure: as §1

[5] = system: P. aeruginosa ATCC 27853; assay type: cell-based, Pseudomonas aeruginosa; conditions: ATCC 27853, 24 h
Procedure: as §1

[6] = system: P. aeruginosa PAO1; assay type: cell-based, Pseudomonas aeruginosa; conditions: PAO1, 24 h
Procedure: as §1

[7] = system: M. luteus B-1314; assay type: cell-based, Micrococcus luteus; conditions: B-1314, 24 h
Procedure: as §1

[8] = system: freshly isolated human erythrocytes (hRBCs); assay: Hemolysis assay (hemoglobin release); assay type: cell-based; conditions: red cells of human, 64
From the text: To assess the hemolytic activity of the compounds, freshly isolated human erythrocytes (hRBCs) were used according to the methodology described in a previous study. Melittin was used as a positive peptide control that induces significant hemolysis. Isotonic phosphate buffer (PBS) served as a negative control, while 0.1% Triton X-100 solution was used as a control for complete hemolysis.

[9] = system: E. coli ATCC 25922; assay type: cell-based; conditions: ATCC 25922, 24 h
Procedure: as §1

[10] = system: E. coli BW 25113; assay type: cell-based; conditions: two-fold serial dilutions, 24 h incubation, resazurin read-out; median of at least three independent experiments in triplicate
Procedure: as §1

[11] = system: E. coli ML35p; assay type: cell-based
Procedure: as §1

[12] = system: Acinetobacter baumannii (strain XDR CI 2675); assay type: cell-based
Procedure: as §1

[13] = system: all the test strains; assay type: cell-based; conditions: geometric mean over the 10 test strains
Procedure: as §1

[14] = two-fold serial dilutions, 24 h incubation, resazurin read-out, median of at least three independent experiments in triplicate
[15] = strain XDR CI 2675, two-fold serial dilutions, 24 h incubation, resazurin read-out, median of at least three independent experiments in triplicate

| SMILES | MIC, S. aureus ATCC 29213 [1] [µM] | MIC, S. aureus 209P [2] [µM] | Cell Viability, % (128 μM) [3] | MIC, K. pneumoniae ATCC 700603 [4] [µM] | MIC, P. aeruginosa ATCC 27853 [5] [µM] | MIC, P. aeruginosa PAO1 [6] [µM] | MIC, M. luteus B-1314 [7] [µM] | Hemolytic activity, % (64 μM) [8] | MIC, E. coli ATCC 25922 [9] [µM] | MIC, E. coli BW 25113 [10] [µM] | MIC, E. coli ML35p ([11]; ML35p, 24 h) [µM] | MIC, A. baumannii ([12]; strain XDR CI 2675, 24 h) [µM] | MIC (GM), geometric mean of the peptide's MICs against all the test strains [13] [µM] | MIC, E. coli ML35p [11, 14] [µM] | MIC, A. baumannii [12, 15] [µM] |
| --- | --- | --- | --- | --- | --- | --- | --- | --- | --- | --- | --- | --- | --- | --- | --- |
| CC(C)[C@@H]1NC(=O)[C@@H]2CSSC[C@H](NC(=O)[C@H](Cc3ccc(O)cc3)NC(=O)[C@@H](NC(=O)[C@H](C)NC(=O)[C@H](CCCNC(=N)N)NC(=O)CNC(=O)CNC(=O)[C@@H](N)CCCNC(=N)N)CSSC[C@@H](C(=O)N[C@@H](CCCNC(=N)N)C(=O)NCC(=O)N[C@@H](CCCNC(=N)N)C(=O)O)NC1=O)C(=O)N[C@@H](CCCNC(=N)N)C(=O)N[C@@H](CCCNC(=N)N)C(=O)N[C@@H](CCCNC(=N)N)C(=O)N[C@@H](Cc1ccccc1)C(=O)N2 [[L5A,V16R]] (H-RGGRACYCRRRFCVCRGR-OH; disulfide 6-15, 8-13; N-terminus and C-terminus assumed) | 32 (≈ 69.5 µg/mL) | 32 (≈ 69.5 µg/mL) | 94.1 (± 3.51) % | 32 (≈ 69.5 µg/mL) | 4 (≈ 8.69 µg/mL) | 8 (≈ 17.4 µg/mL) | 4 (≈ 8.69 µg/mL) | 1.0 (±0.01) % | 2 (≈ 4.34 µg/mL) | 2 (≈ 4.34 µg/mL) | 1 (≈ 2.17 µg/mL) | 0.5 (≈ 1.09 µg/mL) | 4.9 | – | – |
| CC(C)[C@H](NC(=O)[C@@H]1CSSC[C@H](NC(=O)[C@H](C)NC(=O)[C@H](CCCNC(=N)N)NC(=O)CNC(=O)CNC(=O)[C@@H](N)CCCNC(=N)N)C(=O)N[C@@H](Cc2ccc(O)cc2)C(=O)N[C@H]2CSSC[C@H](NC(=O)[C@H](Cc3ccccc3)NC(=O)[C@H](CCCNC(=N)N)NC(=O)[C@H](CCCNC(=N)N)NC(=O)[C@H](CCCNC(=N)N)NC2=O)C(=O)N[C@@H](C(C)C)C(=O)N1)C(=O)NCC(=O)N[C@@H](CCCNC(=N)N)C(=O)O [[L5A]] (H-RGGRACYCRRRFCVCVGR-OH; disulfide 6-15, 8-13; N-terminus and C-terminus assumed) | 1 (≈ 2.11 µg/mL) | 1 (≈ 2.11 µg/mL) | 10.0 (±3.27) % | 1 (≈ 2.11 µg/mL) | 0.25 (≈ 0.529 µg/mL) | 0.5 (≈ 1.06 µg/mL) | 0.5 (≈ 1.06 µg/mL) | 40.3 (±6.95) % | 0.5 (≈ 1.06 µg/mL) | 0.125 (≈ 0.264 µg/mL) | – | – | 0.4 | 0.25 (≈ 0.529 µg/mL) | 0.25 (≈ 0.529 µg/mL) |
| CC(C)[C@H](NC(=O)[C@@H]1CSSC[C@H](NC(=O)[C@H](CCCNC(=N)N)NC(=O)[C@H](CCCNC(=N)N)NC(=O)CNC(=O)CNC(=O)[C@@H](N)CCCNC(=N)N)C(=O)N[C@@H](Cc2ccc(O)cc2)C(=O)N[C@H]2CSSC[C@H](NC(=O)[C@H](Cc3ccccc3)NC(=O)[C@H](CCCNC(=N)N)NC(=O)[C@H](CCCNC(=N)N)NC(=O)[C@H](CCCNC(=N)N)NC2=O)C(=O)N[C@@H](C(C)C)C(=O)N1)C(=O)NCC(=O)N[C@@H](CCCNC(=N)N)C(=O)O [[L5R]] (H-RGGRRCYCRRRFCVCVGR-OH; disulfide 6-15, 8-13; N-terminus and C-terminus assumed) | 4 (≈ 8.8 µg/mL) | 4 (≈ 8.8 µg/mL) | 7.7 (± 4.64) % | 8 (≈ 17.6 µg/mL) | 1 (≈ 2.2 µg/mL) | 1 (≈ 2.2 µg/mL) | 1 (≈ 2.2 µg/mL) | 14.1 (±2.13) % | 1 (≈ 2.2 µg/mL) | 0.25 (≈ 0.55 µg/mL) | – | – | 1.2 | 0.5 (≈ 1.1 µg/mL) | 0.5 (≈ 1.1 µg/mL) |
| CC(C)C[C@H](NC(=O)[C@H](CCCNC(=N)N)NC(=O)CNC(=O)CNC(=O)[C@@H](N)CCCNC(=N)N)C(=O)N[C@H]1CSSC[C@@H](C(=O)N[C@@H](CCCNC(=N)N)C(=O)NCC(=O)N[C@@H](CCCNC(=N)N)C(=O)O)NC(=O)[C@H](C)NC(=O)[C@@H]2CSSC[C@H](NC(=O)[C@H](Cc3ccc(O)cc3)NC1=O)C(=O)N[C@@H](CCCNC(=N)N)C(=O)N[C@@H](CCCNC(=N)N)C(=O)N[C@@H](CCCNC(=N)N)C(=O)N[C@@H](Cc1ccccc1)C(=O)N2 [[V14A,V16R]] (H-RGGRLCYCRRRFCACRGR-OH; disulfide 6-15, 8-13; N-terminus and C-terminus assumed) | 32 (≈ 69.9 µg/mL) | 32 (≈ 69.9 µg/mL) | 110.6 (± 6.68) % | 32 (≈ 69.9 µg/mL) | 4 (≈ 8.74 µg/mL) | 8 (≈ 17.5 µg/mL) | 4 (≈ 8.74 µg/mL) | 1.1 (±0.15) % | 2 (≈ 4.37 µg/mL) | 2 (≈ 4.37 µg/mL) | 1 (≈ 2.19 µg/mL) | 0.5 (≈ 1.09 µg/mL) | 4.9 | – | – |
| CC(C)C[C@H](NC(=O)[C@H](CCCNC(=N)N)NC(=O)CNC(=O)CNC(=O)[C@@H](N)CCCNC(=N)N)C(=O)N[C@H]1CSSC[C@@H](C(=O)N[C@H](C(=O)NCC(=O)N[C@@H](CCCNC(=N)N)C(=O)O)C(C)C)NC(=O)[C@H](C)NC(=O)[C@@H]2CSSC[C@H](NC(=O)[C@H](Cc3ccc(O)cc3)NC1=O)C(=O)N[C@@H](CCCNC(=N)N)C(=O)N[C@@H](CCCNC(=N)N)C(=O)N[C@@H](CCCNC(=N)N)C(=O)N[C@@H](Cc1ccccc1)C(=O)N2 [[V14A]] (H-RGGRLCYCRRRFCACVGR-OH; disulfide 6-15, 8-13; N-terminus and C-terminus assumed) | 1 (≈ 2.13 µg/mL) | 1 (≈ 2.13 µg/mL) | 12.05 (± 2.8) % | 1 (≈ 2.13 µg/mL) | 0.25 (≈ 0.532 µg/mL) | 0.5 (≈ 1.06 µg/mL) | 0.5 (≈ 1.06 µg/mL) | 39.0 (±10.2) % | 0.5 (≈ 1.06 µg/mL) | 0.125 (≈ 0.266 µg/mL) | 0.25 (≈ 0.532 µg/mL) | 0.125 (≈ 0.266 µg/mL) | 0.4 | – | – |
| CC(C)C[C@H](NC(=O)[C@H](CCCNC(=N)N)NC(=O)CNC(=O)CNC(=O)[C@@H](N)CCCNC(=N)N)C(=O)N[C@H]1CSSC[C@@H](C(=O)N[C@H](C(=O)NCC(=O)N[C@@H](CCCNC(=N)N)C(=O)O)C(C)C)NC(=O)[C@H](CCCNC(=N)N)NC(=O)[C@@H]2CSSC[C@H](NC(=O)[C@H](Cc3ccc(O)cc3)NC1=O)C(=O)N[C@@H](CCCNC(=N)N)C(=O)N[C@@H](CCCNC(=N)N)C(=O)N[C@@H](CCCNC(=N)N)C(=O)N[C@@H](Cc1ccccc1)C(=O)N2 [[V14R]] (H-RGGRLCYCRRRFCRCVGR-OH; disulfide 6-15, 8-13; N-terminus and C-terminus assumed) | 32 (≈ 70.8 µg/mL) | 32 (≈ 70.8 µg/mL) | 98.6 (± 6.0) % | 32 (≈ 70.8 µg/mL) | >32 | 32 (≈ 70.8 µg/mL) | 2 (≈ 4.43 µg/mL) | 1.2 (±0.43) % | 4 (≈ 8.85 µg/mL) | 2 (≈ 4.43 µg/mL) | 4 (≈ 8.85 µg/mL) | 2 (≈ 4.43 µg/mL) | 9.8 | – | – |

From paper PMC10458893, “Design of Protegrin-1 Analogs with Improved Antibacterial Selectivity” (Pharmaceutics, 2023)
